The results in this text go back to patent US8349365B2, “Cellooligosaccharide-containing composition” (priority 2005, dated 2013).

Data set [1] in a line: oil retention (rapeseed oil). Format: physicochemical. The note with it: same manner as in Example 4. From the text: The oil retention of the cellooligosaccharide composition of the present invention is preferably 0.9 g/g. The term “oil retention” means the amount of oil absorbed per 1 g of powder measured by placing 2 g of a cellooligosaccharide composition on a glass plate, kneading powder with a spatula while adding rapeseed oil (Nissin Canola Oil, dropwise using a pipette, and using the point at which oil soaks out of the powder surface as the end point and is expressed by Oil retention (g/g)=amount of oil absorption (g)/amount of cellooligosaccharide composition (g). A greater value is preferable because separation or soaking out of oil, semisolid or liquid can be prevented when a food, a cosmetic, a drug, or a quasi-drug is produced with a prescription containing oil or a prescription containing a semisolid or a liquid at room temperature. The oil retention is more preferably in the range of 1.0 g/g and higher, particularly preferably in the range of 1.1 g/g and higher.

Data set [2] has as its system rough skin, inner side of the forearm. The data set can be described thus: transepidermal water loss (TEWL) recovery test. Type of data set: in vivo, human. From the text: The barrier function in the present invention is expressed by the recovery-promoting rate of transepidermal water loss, and the recovery-promoting rate of transepidermal water loss of the agent for improving barrier function of the present invention is preferably 10% or higher. The recovery-promoting rate referred to herein is expressed by a decreasing rate of relative transepidermal water loss of the cellooligosaccharide-containing composition to a relative transepidermal water loss of purified water using a relative transepidermal water loss 2 hours after applications of the aqueous cellooligosaccharide solution and a relative transepidermal water loss obtained from purified water to the rough skin. This value is obtained by the following expression. Recovery-promoting rate(%)=([relative transepidermal water loss of water)−[relative transepidermal water loss of cellooligosaccharide-containing composition]/(relative transepidermal water loss of water)×100
Furthermore, a relative value of the above-mentioned transepidermal water loss (relative transepidermal water loss) can be measured by transepidermal water loss (TEWL) in the rough skin. First, the inner side of the forearm (test site) is wiped with 70% ethanol and habituated in a room with a constant temperature and a humidity (room temperature 22° C., humidity 45%) for 15 minutes, and the test site is measured with a 2-channel moisture loss monitor (manufactured by Asahi Biomed, TW-AS type to obtain the initial TEWL value (TEWEL0). Then, after measurement of the initial TEWL, the test site is washed with water, the test site is coated with 2% by mass of sodium dodecylsulfate (SDS, by a closed patch and washed with water using a Finn chamber (manufactured by Epitest), and then TEWL (TSWL rough skin) is measured in the same manner as described above. Then purified water or the aqueous cellooligosaccharide solution of the present invention is applied to the same site, and TEWL at the site is measured 2 hours after application (TEWL2) by the above-described method. […]

As for `OC[C@H]1O[C@@H](O[C@H]2[C@H](O)[C@@H](O)[C@H](O)O[C@@H]2CO)[C@H](O)[C@@H](O)[C@@H]1O` [D-cellobiose], the oil retention in data set [1] turned out to be 0.85.

Consider `OC[C@H]1O[C@H](OC[C@H]2O[C@H](O[C@]3(CO)O[C@H](CO)[C@@H](O)[C@@H]3O)[C@H](O)[C@@H](O)[C@@H]2O)[C@H](O)[C@@H](O)[C@H]1O` [compound 9, raffinose], for which the “relative TEWL value after 2 hours” value in data set [2] (SDS-treated forearm skin of 3 male and 2 female subjects, rough skin taken as 100, 2 hours after application) is listed as 42.1%. Besides, the “TEWL RECOVERY-PROMOTING RATE AFTER 2 HOURS” value in data set [2] (relative to purified water, 2 hours after application) is −7.1%.

Take `OC[C@H]1O[C@H](OC[C@H]2O[C@H](O[C@]3(CO)O[C@H](CO)[C@@H](O)[C@@H]3O)[C@H](O)[C@@H](O)[C@@H]2O)[C@H](O)[C@@H](O)[C@H]1O` [compound 13, raffinose]: in data set [2] (measured in the same manner as in Examples 19 to 23, 5% by mass), the “relative TEWL value” came out at 42.1%.
